# Assay results: patent publication US20240343755A1, “STABLE ISOQUINOLINE-CORTICOSTEROID CONJUGATES AND USES THEREOF” (priority 2021, published 2024)
# Structures can show the parent of a compound that is named as a salt. Where two headings read alike, the source gives them in different places.
# Experiments:
# Splenic Interleukin-23 = test: In vitro steroid activity, splenic IL-23; format: cell-based; details: read-out: IC50 (nM) SPLN IL23
# Method: (§1) Activities of certain compounds and components of compounds described herein were assayed. […] Rho-associated protein kinase 2=ROCK2; […] Porcine Trabecular Meshwork cells=PTM; Human Trabecular Meshwork cells=HTM; Splenic Interleukin-23=SPNL IL23; and Tumor Necrosis Factor α=TNFα.
# Tumor Necrosis Factor α = test: In vitro steroid activity, TNFα; format: cell-based; details: read-out: IC50 (nM) TNFα
# Method: as §1
# [1] = molecular target: Rho-associated protein kinase 2 (ROCK2) (Homo sapiens, UniProt O75116); test: In vitro ROCKi activity, ROCK2; format: biochemical
# Sequence of Rho-associated protein kinase 2 (ROCK2) (O75116 whole entry, species assumed): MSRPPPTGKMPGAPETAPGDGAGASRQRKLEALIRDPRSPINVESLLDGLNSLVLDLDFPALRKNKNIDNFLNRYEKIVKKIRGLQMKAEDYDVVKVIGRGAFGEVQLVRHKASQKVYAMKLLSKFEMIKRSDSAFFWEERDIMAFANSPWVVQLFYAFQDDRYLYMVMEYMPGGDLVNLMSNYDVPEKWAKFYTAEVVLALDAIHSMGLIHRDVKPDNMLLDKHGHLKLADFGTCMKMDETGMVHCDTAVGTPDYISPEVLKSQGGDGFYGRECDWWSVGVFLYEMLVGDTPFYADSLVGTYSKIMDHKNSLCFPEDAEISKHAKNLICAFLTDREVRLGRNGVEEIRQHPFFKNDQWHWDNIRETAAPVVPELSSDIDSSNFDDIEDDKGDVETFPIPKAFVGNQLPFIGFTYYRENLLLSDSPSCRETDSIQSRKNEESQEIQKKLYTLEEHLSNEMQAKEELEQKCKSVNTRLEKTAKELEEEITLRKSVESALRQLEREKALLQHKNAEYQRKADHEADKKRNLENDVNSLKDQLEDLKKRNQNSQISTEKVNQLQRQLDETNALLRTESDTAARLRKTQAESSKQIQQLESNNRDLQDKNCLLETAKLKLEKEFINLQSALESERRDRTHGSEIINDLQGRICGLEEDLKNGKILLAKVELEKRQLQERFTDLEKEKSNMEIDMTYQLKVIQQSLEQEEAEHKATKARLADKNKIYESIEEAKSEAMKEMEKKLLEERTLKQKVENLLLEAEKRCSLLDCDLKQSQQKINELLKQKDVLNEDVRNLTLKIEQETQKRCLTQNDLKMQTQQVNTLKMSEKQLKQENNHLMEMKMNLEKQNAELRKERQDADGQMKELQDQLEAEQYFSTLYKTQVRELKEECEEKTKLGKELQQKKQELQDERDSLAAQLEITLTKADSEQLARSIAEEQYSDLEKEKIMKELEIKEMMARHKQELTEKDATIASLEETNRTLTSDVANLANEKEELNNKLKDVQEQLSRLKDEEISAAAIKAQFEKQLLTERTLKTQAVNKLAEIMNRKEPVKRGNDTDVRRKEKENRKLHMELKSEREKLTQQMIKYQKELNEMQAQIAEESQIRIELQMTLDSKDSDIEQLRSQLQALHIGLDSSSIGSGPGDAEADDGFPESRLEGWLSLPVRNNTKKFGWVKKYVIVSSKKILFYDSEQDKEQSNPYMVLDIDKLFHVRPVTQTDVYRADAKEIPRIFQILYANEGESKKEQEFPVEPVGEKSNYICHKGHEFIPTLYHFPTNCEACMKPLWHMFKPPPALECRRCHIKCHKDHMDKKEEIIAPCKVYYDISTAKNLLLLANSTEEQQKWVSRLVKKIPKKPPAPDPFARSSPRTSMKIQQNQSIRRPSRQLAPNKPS
# Method: (§2) Activities of certain compounds and components of compounds described herein were assayed. […] Rho-associated protein kinase 2=ROCK2; Rho-associated protein kinase 1=ROCK1; Porcine Trabecular Meshwork cells=PTM; Human Trabecular Meshwork cells=HTM; Splenic Interleukin-23=SPNL IL23; and Tumor Necrosis Factor α=TNFα.
# [2] = molecular target: Rho-associated protein kinase 1 (ROCK1) (Homo sapiens, UniProt Q13464); test: In vitro ROCKi activity, ROCK1; format: biochemical
# Sequence of Rho-associated protein kinase 1 (ROCK1) (Q13464 whole entry, species assumed): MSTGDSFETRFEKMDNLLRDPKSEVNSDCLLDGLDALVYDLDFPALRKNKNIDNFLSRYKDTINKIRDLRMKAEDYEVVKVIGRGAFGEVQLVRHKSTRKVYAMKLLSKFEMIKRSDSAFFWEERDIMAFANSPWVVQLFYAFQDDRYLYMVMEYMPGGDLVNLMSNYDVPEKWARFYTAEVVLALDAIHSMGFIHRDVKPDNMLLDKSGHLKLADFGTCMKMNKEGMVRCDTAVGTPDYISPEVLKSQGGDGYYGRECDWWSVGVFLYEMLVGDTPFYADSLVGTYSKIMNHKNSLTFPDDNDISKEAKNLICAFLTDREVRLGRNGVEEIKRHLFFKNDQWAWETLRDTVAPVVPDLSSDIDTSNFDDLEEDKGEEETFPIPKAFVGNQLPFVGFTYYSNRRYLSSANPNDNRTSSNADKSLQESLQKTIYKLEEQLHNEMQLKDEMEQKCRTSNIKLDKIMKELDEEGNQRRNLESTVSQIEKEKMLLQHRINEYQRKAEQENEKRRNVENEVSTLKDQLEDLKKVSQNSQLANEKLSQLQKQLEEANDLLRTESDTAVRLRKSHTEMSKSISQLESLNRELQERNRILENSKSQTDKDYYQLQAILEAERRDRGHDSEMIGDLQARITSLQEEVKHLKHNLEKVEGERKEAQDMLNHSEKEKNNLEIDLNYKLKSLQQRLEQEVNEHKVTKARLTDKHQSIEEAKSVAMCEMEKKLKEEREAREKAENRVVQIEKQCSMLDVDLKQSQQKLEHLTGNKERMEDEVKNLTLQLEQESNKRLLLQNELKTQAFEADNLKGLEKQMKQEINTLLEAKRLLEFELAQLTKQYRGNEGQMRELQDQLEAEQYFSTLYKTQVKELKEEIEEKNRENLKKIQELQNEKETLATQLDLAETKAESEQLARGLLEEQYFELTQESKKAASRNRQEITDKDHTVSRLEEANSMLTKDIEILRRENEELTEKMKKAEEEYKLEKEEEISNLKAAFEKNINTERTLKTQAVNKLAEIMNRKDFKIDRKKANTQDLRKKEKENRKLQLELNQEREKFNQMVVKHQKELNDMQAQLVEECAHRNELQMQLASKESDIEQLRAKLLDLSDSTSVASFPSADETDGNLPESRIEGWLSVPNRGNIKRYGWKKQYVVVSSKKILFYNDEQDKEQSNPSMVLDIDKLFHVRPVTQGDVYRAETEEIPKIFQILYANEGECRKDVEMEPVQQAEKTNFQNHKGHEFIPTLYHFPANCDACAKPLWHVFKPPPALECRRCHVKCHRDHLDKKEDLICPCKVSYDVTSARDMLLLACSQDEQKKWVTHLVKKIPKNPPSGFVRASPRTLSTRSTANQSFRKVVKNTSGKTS
# Method: as §2
# [3] = tested on: Porcine Trabecular Meshwork cells; test: Activity in Porcine Trabecular Meshwork cells (PTM); format: cell-based; details: Sus scrofa
# Method: as §2
# [4] = tested on: Allergic Eye Disease (AED) in wildtype C57Bl/6 mice; test: Chronic/severe allergic eye disease (AED) model, Meibomian gland dysfunction; format: in vivo; details: 0.1% E5 in SBEβCD, topical BID 5 uL
# Method: E5 was formulated in 5% sulfobutylether-β-cyclodextrin (SBEβCD), 10 mM PBS (0.1% NaCl) solution, pH 6 and filtered with a 0.2 μm PVDF filter. AED was induced in wildtype C57Bl/6 mice. Animals were immunized with one intraperitoneal (i.p) injection of 100 μg of OVA (InvivoGen) in 300 ng of pertussis toxin (List Biologicals) and 4 mg of aluminum hydroxide (Alum, Thermo Fisher Scientific Pierce) on Day 0. Two weeks later, mice were treated topically QD with 5 μL OVA (50 μg/μL) in sterile saline for 5 days. Mice were treated topically BID with 5 uL of vehicle (10% SBEβCD), Lotemax® (Bausch & Lomb; loteprednol etabonate ophthalmic gel 0.5%) or 0.1% E5 in SBEβCD (50:1). The first treatment was administered on Day 14 (2 weeks after initial immunization), 10 minutes prior to OVA instillation followed by a second dose >7 hrs thereafter.
# Assessment was carried out following euthanasia. All four lids were gently inverted under a dissection microscope to expose the posterior lid margin. The number of plugs on the upper and lower eyelids are analyzed and scored for severity as follows: 0 indicates no plug, 1+ indicates appearance of plug. 2+ is assigned to a plug that obstructs the entire MG (Meibomian gland) orifice, 3+ is a plug with a dome that rises above the plane of the eyelid margin, and a 4 is given to a plug that covers a larger surface than the MG orifice (usually with irregular circumference edges).
# Clinical parameters including eyelid edema, chemosis, conjunctival redness, and tearing were each scored on a scale of 0-3+. A score of 0 indicated no evidence of the respective parameter, 1+ is assigned if the response is mild, but distinctly greater than the naive controls; 2+ for a moderate change in the respective parameters that could be noted by slit-lamp microscopy, but not with naked eye; and 3+ if the response is severe enough that could be perceived with naked eye.
# Results are shown in FIG. 9, FIG. 10, and FIG. 11.
# [5] = tested on: corneal epithelium debridement in C57/B1/6 mice; test: In vivo PK/PD ocular surface corneal wound healing model; details: 0.1% E5 in SBEβCD
# Method: E5 was formulated in 3.5% sulfobutylether-β-cyclodextrin (SBEβCD), 10 mM PBS, pH 6 and filtered with a 0.2 μm PVDF filter.
# Anesthetized animals (8-10 weeks old male C57/B1/6 mice) were placed under a dissecting microscope and eyes proposed. Corneas of OD eyes were demarcated by centrally, and softly, marking the perimeters of the debridement area with a 2 mm trephine. A 10 μL drop of PBS was placed on the eye and an Algerbrush with a 0.5 mm burr attachment was utilized to carefully remove the epithelium within the demarcated area of the cornea. Topical fluorescein (Sigma) was applied, and excess fluorescein flushed prior to capture of a baseline image of the wound (time=0). Topical treatments were administered at t=0 and t=6 hours post-injury by applying 5 µL to the surface of the debrided eye. Fluorescein-stained corneas were imaged again 24 h after injury. Percent re-epithelialization was assessed by analysis of imaged corneas with Image J (NIH, Bethesda, MD).
# 0.1% dexamethasone and 0.5% loteprednol were used as positive clinically relevant controls.
# [6] = tested on: intraocular pressure in normotensive Dutch Belted rabbits; test: Intraocular pressure study in normotensive Dutch Belted rabbits; format: in vivo; details: single dose E5 0.1% or 0.25%
# Method: E5 was formulated in 3.5% or 6.5% sulfobutylether-β-cyclodextrin (SBEβCD), 10 mM PBS, pH 6 and filtered with a 0.2 μm PVDF filter. A single dose was administered and the intraocular pressure was measured, e.g., with a pneumatonometer, for 32 hours post-dose.
# [7] = tested on: Human Trabecular Meshwork cells; test: Activity in Human Trabecular Meshwork cells (HTM); format: cell-based
# Method: as §2
IC50 (Splenic Interleukin-23; Splenic Interleukin-23) [nM],IC50 [1] [nM],IC50 [7] [nM],Compound,IC50 (Tumor Necrosis Factor α) [nM],IC50 ([1]; read-out: IC50 (nM) ROCK2) [nM],IC50 [2] [nM],IC50 [3] [nM],IC50 (Splenic Interleukin-23) [nM],Meibomian gland orifice plugging (number and severity of MG plugs) ([4]; FIG. 10),neutrophil levels in Meibomian gland and conjunctiva ([4]; FIG. 11),"clinical scoring (eyelid edema, chemosis, conjunctival redness, tearing) ([4]; better than loteprednol gel, significance on day 4, FIG. 9)","re-epithelialization (recovery of epithelium) ([5]; 24 h after epithelium debridement, FIG. 12)","myeloperoxidase (MPO) levels (eye surface inflammation) ([5]; topical 5 µL at t=0 and t=6 hours post-injury, FIG. 13)",hyperemia ([6]; Dutch belted rabbits),"intraocular pressure (IOP) ([6]; measured for 32 hours post-dose, FIG. 14, FIG. 15)"
0.93,–,–,"CC1(C)O[C@@H]2C[C@H]3[C@@H]4CCC5=CC(=O)C=C[C@]5(C)[C@@]4(F)[C@@H](O)C[C@]3(C)[C@]2(C(=O)CO)O1 [C, Triamcinolone, reference compound]",0.51,–,–,–,–,–,–,–,–,–,–,–
–,–,–,"CC1(C)O[C@@H]2C[C@H]3[C@@H]4CCC5=CC(=O)C=C[C@]5(C)[C@@]4(F)[C@@H](O)C[C@]3(C)[C@]2(C(=O)COC(=O)CCCC(=O)OCc2ccc([C@@H](CN)C(=O)Nc3ccc4cnccc4c3)cc2)O1 [Example E5, 4-((S)-3-amino-1-(isoquinolin-6-ylamino)-1-oxopropan-2-yl)benzyl (2-((6aS,6bR,7S,8aS,8bS,11aR,12aS,12bS)-6b-fluoro-7-hydroxy-6a,8a,10,10-tetramethyl-4-oxo-1,2,4,6a,6b,7,8,8a,11a,12,12a,12b-dodecahydro-8bH-naphtho[2′,1′:4,5]indeno[1,2-d][1,3]dioxol-8b-yl)-2-oxoethyl) glutarate dihydrochloride]",10,9,9,55,1,effective in lowering both the number and severity of the MG plugs compared to both vehicle and loteprednol,reduced the number of neutrophils in the Meibomian gland and conjunctiva,statistically significantly improved compared to vehicle,did not affect the recovery of epithelium,significantly reduced the cornea inflammation in comparison to PBS (phosphate-buffered saline) vehicle and loteprednol groups,no hyperemia observed,lowered IOP in a dose-dependent manner
–,0.99,5,"NC[C@@H](C(=O)Nc1ccc2cnccc2c1)c1ccc(CO)cc1 [A, reference compound]",–,–,1.7,13,–,–,–,–,–,–,–,–
4.6,–,≥ 3000,"C[C@@H]1C[C@H]2[C@@H]3CCC4=CC(=O)C=C[C@]4(C)[C@@]3(F)[C@@H](O)C[C@]2(C)[C@@]1(O)C(=O)CO [B, Dexamethasone, reference compound]",47,–,–,≥ 3000,–,–,–,–,–,–,–,–

Compound,IC50 (Splenic Interleukin-23; Splenic Interleukin-23) [nM],IC50 [1] [nM],IC50 [7] [nM],IC50 (Tumor Necrosis Factor α) [nM],IC50 ([1]; read-out: IC50 (nM) ROCK2) [nM],IC50 [2] [nM],IC50 [3] [nM],IC50 (Splenic Interleukin-23) [nM],Meibomian gland orifice plugging (number and severity of MG plugs) ([4]; FIG. 10),neutrophil levels in Meibomian gland and conjunctiva ([4]; FIG. 11),"clinical scoring (eyelid edema, chemosis, conjunctival redness, tearing) ([4]; better than loteprednol gel, significance on day 4, FIG. 9)","re-epithelialization (recovery of epithelium) ([5]; 24 h after epithelium debridement, FIG. 12)","myeloperoxidase (MPO) levels (eye surface inflammation) ([5]; topical 5 µL at t=0 and t=6 hours post-injury, FIG. 13)",hyperemia ([6]; Dutch belted rabbits),"intraocular pressure (IOP) ([6]; measured for 32 hours post-dose, FIG. 14, FIG. 15)"
C[C@@H]1C[C@H]2[C@@H]3CCC4=CC(=O)C=C[C@]4(C)[C@@]3(F)[C@@H](O)C[C@]2(C)[C@@]1(O)C(=O)COC(=O)CCCC(=O)OCc1ccc([C@@H](CN)C(=O)Nc2ccc3cnccc3c2)cc1 [Example E15],12,–,–,147,4,7,40,–,–,–,–,–,–,–,–
